This test deals with Nur77 (Homo sapiens, UniProt P22736). Kind of test: SPR. Type of test: binding.

Each structure is given as a SMILES string.

The record followed here is paper PMC10935061 (Acta Pharmaceutica Sinica. B, 2023).

Sequence of Nur77 (P22736 360-598 limits assumed): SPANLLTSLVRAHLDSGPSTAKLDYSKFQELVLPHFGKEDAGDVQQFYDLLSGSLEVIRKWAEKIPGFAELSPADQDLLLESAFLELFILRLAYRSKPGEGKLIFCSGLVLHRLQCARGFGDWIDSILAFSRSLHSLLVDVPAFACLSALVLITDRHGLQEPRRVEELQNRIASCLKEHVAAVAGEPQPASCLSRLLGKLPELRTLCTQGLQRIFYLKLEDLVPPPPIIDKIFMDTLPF

Turning to `CCCCCCCC(=O)c1cc(OC)c(OC)c(OC)c1CC(=O)OCC` [TMPA], the dissociation constant (Kd) came to 380 nM.
